Source: patent publication US20260285850A1, “SUBSTITUTED OXAZOLIDINONES AND IMIDAZOLINONES AS HERBICIDES” (FMC CORPORATION, priority 2023, published 2026)

Tests used:
Type in all cases: in vivo
[1] = system: kochia (Bassia scoparia); test: Test A preemergence soil spray, visual injury rating 0-100; conditions: 10 days
Summary of the method: (§1)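 Plants were grown in a loam soil-sand blend and treated with test chemical in a non-phytotoxic solvent mixture containing surfactant, either sprayed on soil preemergence or applied postemergence to 2-10 cm plants. After 10 days in a greenhouse, injury was scored visually against untreated controls, 0 meaning no effect and 100 complete control.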

[2] = system: soybean (Glycine max); test: as above; conditions: 62 g ai/ha, 10 days, 0 = no effect, 100 = complete control
Summary of the method: as §1

[3] = system: ragweed (common ragweed, Ambrosia artemisiifolia); test: as above; conditions: 10 days
Summary of the method: as §1

[4] = system: corn (Zea mays); test: as above; conditions: 10 days
Summary of the method: as §1

[5] = system: ryegrass, Italian (italian ryegrass, Lolium multiflorum); test: as above; conditions: 10 days
Summary of the method: as §1

[6] = system: blackgrass (Alopecurus myosuroides); test: as above; conditions: 10 days
Summary of the method: as §1

[7] = system: barnyardgrass (Echinochloa crus-galli); test: as above; conditions: 10 days
Summary of the method: as §1

[8] = system: oat, wild (wild oat, Avena fatua); test: as above; conditions: 10 days
Summary of the method: as §1

[9] = system: green foxtail (Setaria viridis); test: as above; conditions: 10 days
Summary of the method: as §1

[10] = system: wheat (Triticum aestivum); test: as above; conditions: 10 days
Summary of the method: as §1

[11] = system: ducksalad (Heteranthera limosa); test: Test B flooded paddy test, visual plant response rating 0-100; conditions: 250 g ai/ha, Flood, applied to paddy water, evaluated after 13 days
Summary of the method: (§2)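 In this flooded assay, 2-leaf seedlings received compound through the water layer, kept at 3 cm over the soil. Plants were held 13 days in a greenhouse and then visually compared with control pots.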

[12] = system: barnyardgrass (Echinochloa crusgalli); test: as above; conditions: 250 g ai/ha, Flood, applied to paddy water, evaluated after 13 days
Summary of the method: as §2

[13] = system: sedge, umbrella (small-flower umbrella sedge, Cyperus difformis); test: as above; conditions: 250 g ai/ha, Flood, applied to paddy water, evaluated after 13 days
Summary of the method: as §2

[14] = system: rice (Oryza sativa); test: as above; conditions: 250 g ai/ha, Flood, applied to paddy water, evaluated after 13 days
Summary of the method: as §2

[15] = system: kochia (Bassia scoparia); test: Test A postemergence application, visual injury rating 0-100
Summary of the method: as §1

[16] = system: galium (catchweed bedstraw, Galium aparine); test: as above
Summary of the method: as §1

[17] = system: soybean (Glycine max); test: as above
Summary of the method: as §1

[18] = system: ragweed (common ragweed, Ambrosia artemisiifolia); test: as above
Summary of the method: as §1

[19] = system: corn (Zea mays); test: as above
Summary of the method: as §1

[20] = system: ryegrass, Italian (italian ryegrass, Lolium multiflorum); test: as above
Summary of the method: as §1

[21] = system: blackgrass (Alopecurus myosuroides); test: as above
Summary of the method: as §1

[22] = system: barnyardgrass (Echinochloa crus-galli); test: as above
Summary of the method: as §1

[23] = system: oat, wild (wild oat, Avena fatua); test: as above
Summary of the method: as §1

[24] = system: horseweed (Erigeron canadensis); test: as above
Summary of the method: as §1

[25] = system: green foxtail (Setaria viridis); test: as above
Summary of the method: as §1

[26] = system: wheat (Triticum aestivum); test: as above
Summary of the method: as §1

[27] = system: palmer (palmer amaranth, palmer pigweed, Amaranthus palmeri); test: as above
Summary of the method: as §1

[28] = 62 g ai/ha, 0 = no effect, 100 = complete control
[29] = 62 g ai/ha, postemergence, 10 days, 0 = no effect, 100 = complete control
[30] = Postemergence, 16 g ai/ha, greenhouse 10 days, 0 no effect, 100 complete control

CC1(C(=O)NC2CC=C(C(=O)OCC(F)(F)F)C2)CN(c2cc(F)cc(Cl)c2)C(=O)O1 (stereo not shown) [Compound 142]
0: Kochia plant response rating ([1]; 16 g ai/ha, 0 to 100 scale) | Kochia plant response rating (0-100) [1, 28] | Soybean plant response rating (0-100) [2] | Ragweed plant response rating ([3]; 16 g ai/ha, 0 to 100 scale) | Ragweed plant response rating (0-100) [3, 28] | Corn plant response rating ([4]; 16 g ai/ha, 0 to 100 scale) | Corn plant response rating (0-100) [4, 28] | Ryegrass, Italian plant response rating ([5]; 16 g ai/ha, 0 to 100 scale) | Ryegrass, Italian plant response rating (0-100) [5, 28] | Blackgrass plant response rating ([6]; 16 g ai/ha, 0 to 100 scale) | Blackgrass plant response rating (0-100) [6, 28] | Barnyardgrass plant response rating ([7]; 16 g ai/ha, 0 to 100 scale) | Barnyardgrass plant response rating (0-100) [7, 28] | Oat, Wild plant response rating ([8]; 16 g ai/ha, 0 to 100 scale) | Oat, Wild plant response rating (0-100) [8, 28] | Foxtail, Green plant response rating ([9]; 16 g ai/ha, 0 to 100 scale) | Foxtail, Green plant response rating (0-100) [9, 28] | Wheat plant response rating ([10]; 16 g ai/ha, 0 to 100 scale) | Wheat plant response rating (0-100) [10, 28] | Plant response rating, Ducksalad (0 to 100 scale, 0 is no effect and 100 is complete control) [11] | Plant response rating, Barnyardgrass (0 to 100 scale, 0 is no effect and 100 is complete control) [12] | Plant response rating, Sedge, Umbrella (0 to 100 scale, 0 is no effect and 100 is complete control) [13] | Plant response rating, Rice (0 to 100 scale, 0 is no effect and 100 is complete control) [14] | Kochia plant response rating (0-100) [15, 29] | Kochia plant response rating (0 to 100 scale) [15, 30] | Galium plant response rating (0-100) [16, 29] | Galium plant response rating (0 to 100 scale) [16, 30] | Soybean plant response rating (0-100) [17, 29] | Soybean plant response rating (0 to 100 scale) [17, 30] | Ragweed plant response rating (0-100) [18, 29] | Ragweed plant response rating (0 to 100 scale) [18, 30] | Corn plant response rating (0-100) [19, 29] | Corn plant response rating (0 to 100 scale) [19, 30] | Ryegrass, Italian plant response rating (0-100) [20, 29] | Ryegrass, Italian plant response rating (0 to 100 scale) [20, 30] | Blackgrass plant response rating (0-100) [21, 29] | Blackgrass plant response rating (0 to 100 scale) [21, 30] | Barnyardgrass plant response rating (0-100) [22, 29] | Barnyardgrass plant response rating (0 to 100 scale) [22, 30] | Oat, Wild plant response rating (0-100) [23, 29] | Oat, Wild plant response rating (0 to 100 scale) [23, 30] | Horseweed plant response rating (0-100) [24, 29] | Horseweed plant response rating (0 to 100 scale) [24, 30] | Foxtail, Green plant response rating (0-100) [25, 29] | Foxtail, Green plant response rating (0 to 100 scale) [25, 30] | Wheat plant response rating (0-100) [26, 29] | Wheat plant response rating (0 to 100 scale) [26, 30] | Pigweed, Palmer plant response rating (0-100) [27, 29] | Pigweed, Palmer plant response rating (0 to 100 scale) [27, 30]
